Columns and labels:
HepG2 cells = experiment: PLsis (phospholipidosis) inducing potential, NBD-PE uptake; type: cell-based; details: 24 hr exposure, relative value to 10 μM Amiodarone, maximum value per unit concentration
Description: Evaluation of PLsis Inducing Potential
DMEM medium, L-glutamine, penicillin-streptomycin, pyruvic acid, and N-(7-nitrobenz-2-oxa-1,3-diazol-4-yl)-1,2-hexadecanoyl-sn-glycero-3-phosphoethanolamine triethylammonium salt (NBD-PE) were purchased from Invitrogen Corporation. As bovine serum albumin (BSA), a product of Thermo Trace Ltd. (Melbourne, Australia) was used, and as Amiodarone, a product of ICN (Costa Mesa, Calif.) was used. A test compound was used in the form of a 10 mM DMSO solution.
FBS was added at a final concentration of 5 vol % to DMEM medium supplemented with L-glutamine, pyruvic acid and penicillin-streptomycin and subjected to the experiment. Culture was performed using 5% carbon dioxide gas-95% air as a gas phase in a CO2 incubator at 37° C. HepG2 cells were suspended in a culture medium at 50×10^4 cells/mL, plated in a 96 well plate at 50 μL/well and precultured for 24 hr. After preculture, the culture medium was removed, a culture medium containing 60 μM NBD-PE was added at 50 μL/well, and a culture medium containing 0.6 μM or 20 μM test compounds were each added at 50 μL/well to HepG2 cells, and the cells were cultured for 24 hr. As a positive control, Amiodarone was used at a final concentration of 10 μM.
After exposure to the test compound for 24 hr, the fluorescence intensity (Ex. 485 nm, Em. 538 nm) of NBD-PE uptaken by the cells was measured by a fluorometer. The measurement value with addition of 0 μM test compound solution was subtracted as a blank, a relative value to the measurement 5 value with addition of 10 μM Amiodarone was calculated, and the maximum value per unit concentration of the test compound was obtained as a phospholipidosis (PLsis) inducing potential.

[1] = biological target: T1, human MCH receptor 1 (MCHR1) (Homo sapiens, UniProt Q99705); experiment: human MCH receptor 1 (MCHR1) competitive binding assay with [125I]-MCH(4-19); details: test compound 0.1 μM, human MCHR1-expressing CHO cell membrane fraction, read-out: Binding inhibition rate % (0.1 μM)
T1 construct: expressed in transfected cells; host or cells: CHO cell clone 57 (membrane fraction)
T1 sequence (Q99705 whole entry): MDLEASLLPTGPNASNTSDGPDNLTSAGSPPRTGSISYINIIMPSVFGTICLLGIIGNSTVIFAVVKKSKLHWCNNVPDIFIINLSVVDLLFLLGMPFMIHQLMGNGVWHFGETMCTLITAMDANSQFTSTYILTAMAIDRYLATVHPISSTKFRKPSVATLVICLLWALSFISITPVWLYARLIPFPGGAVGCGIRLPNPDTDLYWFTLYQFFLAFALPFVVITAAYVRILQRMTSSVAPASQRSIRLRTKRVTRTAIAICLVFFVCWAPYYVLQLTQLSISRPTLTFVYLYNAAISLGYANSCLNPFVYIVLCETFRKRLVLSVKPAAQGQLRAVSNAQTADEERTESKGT
Method in brief: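 Percent binding inhibition by 0.1 μM test compound, corrected for nonspecific binding defined with unlabeled MCH(1-19), is read by scintillation after filtration onto PEI-treated GF/C filters. The reaction runs 1 hr at room temperature with [125I]-MCH(4-19) and human MCHR1-CHO cell membranes in Tris-HCl pH 7.5 buffer containing EDTA and protease inhibitors.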

| inhibition at 0.1 µM [1] | Structure (SMILES) | PLsis inducing potential (HepG2 cells) |
| --- | --- | --- |
| 80% | Cn1c(C2CC2)nc2ccc(-n3ccc(OCc4ccc(F)cc4)cc3=O)cc21 [Example 2, 1-(2-Cyclopropyl-1-methyl-1H-benzimidazol-6-yl)-4-((4-fluorobenzyl)oxy)pyridin-2(1H)-one] | 2.2 |
| 74% | CCc1nc2ccc(-n3ccc(OCc4ccc(F)cc4)cc3=O)cc2n1C [Example 63, 1-(2-Ethyl-1-methyl-1H-benzimidazol-6-yl)-4-((4-fluorobenzyl)oxy)pyridin-2(1H)-one] | 1.6 |
| 57% | Cc1nc2ccc(-n3ccc(OCc4ccc(F)cc4)cc3=O)cc2n1C [Example 254, 1-(1,2-Dimethyl-1H-benzimidazol-6-yl)-4-((4-fluorobenzyl)oxy)pyridin-2(1H)-one] | 1.7 |

Source: US9365540B2, “Benzimidazole derivatives as MCH receptor antagonists” (Takeda Pharmaceutical Company Limited, priority 2012, dated 2016)
